Reference: the NIST ThermoML archive (doi:10.1016/j.jct.2005.06.017)

Assay: mn = molality of the nth substance listed, in mol/kg
Details: 350 kPa, Liquid, Extra sensitive DSC

NCC(=O)O [2-aminoacetic acid] + O
apparent molar heat capacity [J/K/mol]
Details	m1 = 0.015	m1 = 0.03	m1 = 0.0503	m1 = 0.0804	m1 = 0.125	m1 = 0.2493	m1 = 0.5056
278.15 K	8	–	–	–	–	–	4.4
283.15 K	25	1	–	12.3	10.3	12.4	18.7
288.15 K	38	14	11	25.5	23.6	25.3	30.5
293.15 K	50	25	24	36.5	34.1	35.4	40.4
298.15 K	59	33	34.8	45.4	42.9	44	48.3
303.15 K	67	41	43.7	52.8	50.1	51.1	55.2
308.15 K	73	48	51	59.1	55.8	57	60.9
313.15 K	78	54	57.3	64.5	61.3	62.4	66
318.15 K	83	59	62.2	68.8	65.7	66.8	70.2
323.15 K	86	63	66.8	72.7	69.3	70.6	73.9
328.15 K	90	67	70.8	76	72.6	73.8	77.1
333.15 K	92	70	74.5	79	75.4	76.7	80
338.15 K	95	73	78	81.6	77.9	79.2	82.5
343.15 K	97	75	80.6	83.6	80	81.3	84.6
348.15 K	99	77	83.1	85.6	81.8	83.1	86.4
353.15 K	101	79	85.3	87.3	83.4	84.8	88.1
358.15 K	102	81	87.1	88.9	84.8	86.2	89.5
363.15 K	103	82	88.9	90.2	86	87.3	90.7
368.15 K	104	83	90.2	91	86.9	88.3	91.6
373.15 K	104	83	91.1	91.7	87.5	89	92.4
378.15 K	104	83	92.1	92.3	87.9	89.4	92.9
383.15 K	103.9	84	93.3	92.9	88.2	89.9	93.3
388.15 K	103.5	84	94.5	93.1	88.2	90	93.6
393.15 K	101.4	84	95.6	92.9	87.7	89.7	93.6
